Experiments:
Format in all cases: in vivo
[1] = tested on: Chilo suppressalis; assay: Example B3: Chilo suppressalis (striped rice stem borer), artificial diet, L2 larvae; details: 144 h, application rate of 200 ppm, 6 days after infestation, read-out: control in at least one of the three categories (mortality, anti-feedant effect, or growth inhibition)
Procedure: Example B3: Chilo suppressalis (Striped Rice Stem Borer)
24-well microtiter plates with artificial diet were treated with aqueous test solutions prepared from 10′000 ppm DMSO stock solutions by pipetting. After drying, the plates were infested with L2 larvae (6-8 per well). The samples were assessed for mortality, anti-feeding effect, and growth inhibition in comparison to untreated samples 6 days after infestation. Control of Chilo suppressalis by a test sample is given when at least one of the categories mortality, anti-feedant effect, and growth inhibition is higher than the untreated sample.

[2] = tested on: Plutella xylostella; assay: Example B4: Plutella xylostella (diamond back moth), artificial diet, 24-well, eggs; details: 192 h, application rate of 200 ppm, 8 days after infestation, 24-well plates, read-out: control in at least one of the two categories (mortality or growth inhibition)
Procedure: Example B4: Plutella xylostella (Diamond Back Moth)
24-well microtiter plates with artificial diet were treated with aqueous test solutions prepared from 10′000 ppm DMSO stock solutions by pipetting. After drying, Plutella eggs were pipetted through a plastic stencil onto a gel blotting paper and the plate was closed with it. The samples were assessed for mortality and growth inhibition in comparison to untreated samples 8 days after infestation. The following compounds gave an effect of at least 80% control in at least one of the two categories (mortality or growth inhibition) at an application rate of 200 ppm: […]

[3] = tested on: Plutella xylostella; assay: Example B10: Plutella xylostella (diamondback moth), artificial diet, 96-well, eggs; details: 216 h, application rate of 500 ppm, 9 days after infestation, 96-well plates
Procedure: Example B10: Plutella xylostella (Diamondback Moth)
96-well microtiter plates containing artificial diet were treated with aqueous test solutions, prepared from 10′000 ppm DMSO stock solutions, by a liquid handling robot. After drying, eggs (˜30 per well) were infested onto a netted lid which was suspended above the diet. The eggs hatch and L1 larvae move down to the diet. The samples were assessed for mortality 9 days after infestation.
The following compounds gave an effect of at least 80% average mortality at an application rate of 500 ppm: […]

[4] = tested on: Spodoptera littoralis; assay: Example B7: Spodoptera littoralis (Egyptian cotton leaf worm), cotton leaf discs sprayed, L1 larvae; details: foliar, 72 h, application rate of 200 ppm, 3 days after infestation, read-out: control in at least one of the three categories (mortality, anti-feedant effect, or growth inhibition)
Procedure: Example B7: Spodoptera littoralis (Egyptian Cotton Leaf Worm)
Cotton leaf discs were placed onto agar in 24-well microtiter plates and sprayed with aqueous test solutions prepared from 10′000 ppm DMSO stock solutions. After drying the leaf discs were infested with five L1 larvae. The samples were assessed for mortality, anti-feeding effect, and growth inhibition in comparison to untreated samples 3 days after infestation. Control of Spodoptera littoralis by a test sample is given when at least one of the categories mortality, anti-feedant effect, and growth inhibition is higher than the untreated sample.

[5] = tested on: Diabrotica balteata; assay: Example B1: Diabrotica balteata (corn root worm), maize sprouts sprayed, L2 larvae; details: 96 h, application rate of 200 ppm, 4 days after infestation, read-out: control in at least one of the two categories (mortality or growth inhibition)
Procedure: Example B1: Diabrotica balteata (Corn Root Worm)
Maize sprouts placed onto an agar layer in 24-well microtiter plates were treated with aqueous test solutions prepared from 10′000 ppm DMSO stock solutions by spraying. After drying, the plates were infested with L2 larvae (6 to 10 per well). The samples were assessed for mortality and growth inhibition in comparison to untreated samples 4 days after infestation.
The following compounds gave an effect of at least 80% control in at least one of the two categories (mortality or growth inhibition) at an application rate of 200 ppm: […]

CC(NC(=O)c1cc(Br)cc(OC(F)F)c1)c1ncnn1-c1ccc(C#N)cn1 (stereo not shown) [Compound F1, 3-bromo-N-[1-[2-(5-cyano-2-pyridyl)-1,2,4-triazol-3-yl]ethyl]-5-( ) difluoromethoxy benzamide]
≥ 80%: percent control (mortality, anti-feedant effect or growth inhibition) at 200 ppm [1] | percent control (mortality or growth inhibition) at 200 ppm [2] | mortality at 500 ppm [3] | percent control (mortality, anti-feedant effect or growth inhibition) at 200 ppm [4] | percent control (mortality or growth inhibition) at 200 ppm [5]

CC(NC(=O)c1cc(C(F)(F)F)cc(C(F)(F)F)c1)c1ncnn1-c1ccc(C#N)cn1 (stereo not shown) [Compound F3, N-[1-[2-(5-cyano-2-pyridyl)-1,2,4-triazol-3-yl]ethyl]-3,5-bis(trifluoromethyl) benzamide]
≥ 80%: percent control (mortality, anti-feedant effect or growth inhibition) at 200 ppm [1] | percent control (mortality or growth inhibition) at 200 ppm [2] | mortality at 500 ppm [3] | percent control (mortality, anti-feedant effect or growth inhibition) at 200 ppm [4] | percent control (mortality or growth inhibition) at 200 ppm [5]

CC(NC(=O)c1cc(SC(F)(F)F)cc(C(F)(F)F)c1)c1ncnn1-c1ccc(C#N)cn1 (stereo not shown) [Compound F5, N-[1-[2-(5-cyano-2-pyridyl)-1,2,4-triazol-3-yl]ethyl]-3-(trifluoromethyl)-5-(trifluoromethylsulfanyl) benzamide]
≥ 80%: percent control (mortality, anti-feedant effect or growth inhibition) at 200 ppm [1] | percent control (mortality or growth inhibition) at 200 ppm [2] | mortality at 500 ppm [3] | percent control (mortality, anti-feedant effect or growth inhibition) at 200 ppm [4] | percent control (mortality or growth inhibition) at 200 ppm [5]

Cc1nc(C(C)NC(=O)c2cc(C(F)(F)F)cc(C(F)(F)F)c2)n(-c2ccc(C#N)cn2)n1 (stereo not shown) [Compound F7, N-[1-[2-(5-cyano-2-pyridyl)-5-methyl-1,2,4-triazol-3-yl]ethyl]-3,5-bis (trifluoromethyl) benzamide]
≥ 80%: percent control (mortality or growth inhibition) at 200 ppm [2] | percent control (mortality, anti-feedant effect or growth inhibition) at 200 ppm [4] | percent control (mortality or growth inhibition) at 200 ppm [5]

CC(NC(=O)c1cc(C(F)(F)F)cc(C(F)(F)F)c1)c1nc(C2CC2)nn1-c1ccc(C#N)cn1 (stereo not shown) [Compound F10, N-[1-[2-(5-cyano-2-pyridyl)-5-cyclopropyl-1,2,4-triazol-3-yl]ethyl]-3,5-bis(trifluoromethyl) benzamide]
≥ 80%: percent control (mortality, anti-feedant effect or growth inhibition) at 200 ppm [1] | percent control (mortality or growth inhibition) at 200 ppm [2] | mortality at 500 ppm [3] | percent control (mortality, anti-feedant effect or growth inhibition) at 200 ppm [4] | percent control (mortality or growth inhibition) at 200 ppm [5]

CC(NC(=O)c1cc(Br)cc(C(F)(F)F)c1)c1nc(C2CC2)nn1-c1ccc(C#N)cn1 (stereo not shown) [Compound F11, 3-bromo-N-[1-[2-(5-cyano-2-pyridyl)-5-cyclopropyl-1,2,4-triazol-3-yl]ethyl]-5-(trifluoromethyl) benzamide]
≥ 80%: percent control (mortality, anti-feedant effect or growth inhibition) at 200 ppm [1] | percent control (mortality or growth inhibition) at 200 ppm [2] | mortality at 500 ppm [3] | percent control (mortality or growth inhibition) at 200 ppm [5]

CC(NC(=O)c1cc(OC(F)F)cc(C(F)(F)F)c1)c1ncnn1-c1ccc(C#N)cn1 (stereo not shown) [Compound F13, N-[1-[2-(5-cyano-2-pyridyl)-1,2,4-triazol-3-yl]ethyl]-3-(difluoromethoxy)-5-(trifluoromethyl) benzamide]
≥ 80%: percent control (mortality or growth inhibition) at 200 ppm [2] | percent control (mortality, anti-feedant effect or growth inhibition) at 200 ppm [4] | percent control (mortality or growth inhibition) at 200 ppm [5]

CC(NC(=O)c1cc(Br)cc(C(F)(F)F)c1)c1ncnn1-c1ccc(C#N)cn1 (stereo not shown) [Compound F14, 3-bromo-N-[1-[2-(5-cyano-2-pyridyl)-1,2,4-triazol-3-yl]ethyl]-5-(trifluoromethyl) benzamide]
≥ 80%: percent control (mortality or growth inhibition) at 200 ppm [2] | percent control (mortality, anti-feedant effect or growth inhibition) at 200 ppm [4] | percent control (mortality or growth inhibition) at 200 ppm [5]

CC(NC(=O)c1cc(C(F)F)cc(C(F)(F)F)c1)c1ncnn1-c1ccc(C#N)cn1 (stereo not shown) [Compound F15, N-[1-[2-(5-cyano-2-pyridyl)-1,2,4-triazol-3-yl]ethyl]-3-(difluoromethyl)-5-(trifluoromethyl) benzamide]
≥ 80%: percent control (mortality, anti-feedant effect or growth inhibition) at 200 ppm [1] | percent control (mortality or growth inhibition) at 200 ppm [2] | percent control (mortality, anti-feedant effect or growth inhibition) at 200 ppm [4] | percent control (mortality or growth inhibition) at 200 ppm [5]

CC(NC(=O)c1cc(OC(F)(F)F)cc(C(F)(F)F)c1)c1ncnn1-c1ccc(C#N)cn1 (stereo not shown) [Compound F17, N-[1-[2-(5-cyano-2-pyridyl)-1,2,4-triazol-3-yl]ethyl]-3-(trifluoromethoxy)-5-(trifluoromethyl) benzamide]
≥ 80%: percent control (mortality, anti-feedant effect or growth inhibition) at 200 ppm [1] | percent control (mortality or growth inhibition) at 200 ppm [2] | mortality at 500 ppm [3] | percent control (mortality, anti-feedant effect or growth inhibition) at 200 ppm [4] | percent control (mortality or growth inhibition) at 200 ppm [5]

CC(NC(=O)c1cc(OCC(F)F)cc(C(F)(F)F)c1)c1ncnn1-c1ccc(C#N)cn1 (stereo not shown) [Compound F18, N-[1-[2-(5-cyano-2-pyridyl)-1,2,4-triazol-3-yl]ethyl]-3-(2,2-difluoroethoxy)-5-(trifluoromethyl) benzamide]
≥ 80%: percent control (mortality, anti-feedant effect or growth inhibition) at 200 ppm [1] | percent control (mortality or growth inhibition) at 200 ppm [2] | mortality at 500 ppm [3] | percent control (mortality, anti-feedant effect or growth inhibition) at 200 ppm [4] | percent control (mortality or growth inhibition) at 200 ppm [5]

CC(NC(=O)c1cc(Br)cc(OCC(F)(F)F)c1)c1ncnn1-c1ccc(C#N)cn1 (stereo not shown) [Compound F19, 3-bromo-N-[1-[2-(5-cyano-2-pyridyl)-1,2,4-triazol-3-yl]ethyl]-5-(2,2,2-trifluoroethoxy) benzamide]
≥ 80%: percent control (mortality, anti-feedant effect or growth inhibition) at 200 ppm [1] | percent control (mortality or growth inhibition) at 200 ppm [2] | mortality at 500 ppm [3] | percent control (mortality, anti-feedant effect or growth inhibition) at 200 ppm [4]

CC(NC(=O)c1cc(Br)cc(OCC(F)F)c1)c1ncnn1-c1ccc(C#N)cn1 (stereo not shown) [Compound F20, 3-bromo-N-[1-[2-(5-cyano-2-pyridyl)-1,2,4-triazol-3-yl]ethyl]-5-(2,2-difluoroethoxy) benzamide]
≥ 80%: percent control (mortality, anti-feedant effect or growth inhibition) at 200 ppm [1] | percent control (mortality or growth inhibition) at 200 ppm [2] | mortality at 500 ppm [3] | percent control (mortality, anti-feedant effect or growth inhibition) at 200 ppm [4]

CC(NC(=O)c1cc(OCC(F)(F)F)cc(C(F)(F)F)c1)c1ncnn1-c1ccc(C#N)cn1 (stereo not shown) [Compound F21, N-[1-[2-(5-cyano-2-pyridyl)-1,2,4-triazol-3-yl]ethyl]-3-(2,2,2-trifluoroethoxy)-5-(trifluoromethyl) benzamide]
≥ 80%: percent control (mortality, anti-feedant effect or growth inhibition) at 200 ppm [1] | percent control (mortality or growth inhibition) at 200 ppm [2] | mortality at 500 ppm [3] | percent control (mortality, anti-feedant effect or growth inhibition) at 200 ppm [4] | percent control (mortality or growth inhibition) at 200 ppm [5]

CC(NC(=O)c1cc(Cl)cc(Cl)c1)c1ncnn1-c1ccc(C#N)cn1 (stereo not shown) [Compound F22, 3,5-dichloro-N-[1-[2-(5-cyano-2-pyridyl)-1,2,4-triazol-3-yl]ethyl]benzamide]
≥ 80%: percent control (mortality, anti-feedant effect or growth inhibition) at 200 ppm [1] | percent control (mortality or growth inhibition) at 200 ppm [2] | percent control (mortality, anti-feedant effect or growth inhibition) at 200 ppm [4] | percent control (mortality or growth inhibition) at 200 ppm [5]

CC(NC(=O)c1cc(Cl)cc(Br)c1)c1ncnn1-c1ccc(C#N)cn1 (stereo not shown) [Compound F23, 3-bromo-5-chloro-N-[1-[2-(5-cyano-2-pyridyl)-1,2,4-triazol-3-yl]ethyl]benzamide]
≥ 80%: percent control (mortality or growth inhibition) at 200 ppm [2] | percent control (mortality, anti-feedant effect or growth inhibition) at 200 ppm [4] | percent control (mortality or growth inhibition) at 200 ppm [5]

— US20210395217A1, “PESTICIDALLY ACTIVE AZOLE-AMIDE COMPOUNDS” (SYNGENTA PARTICIPATIONS AG, priority 2018, published 2021)
